The source of these data is patent US7396842B2, “Five-membered cyclic compounds” (Dianippon Sumitomo Pharma Co., Ltd., priority 2002, dated 2008).

Structures are written as SMILES.

For one test, the target named is T1, SMBS on rat lung membranes (Rattus norvegicus, UniProt A0A8I6A822).
T1 construct: from tissue; host or cells: rat lung membranes (SD male rats)
T1 sequence (A0A8I6A822 27-587): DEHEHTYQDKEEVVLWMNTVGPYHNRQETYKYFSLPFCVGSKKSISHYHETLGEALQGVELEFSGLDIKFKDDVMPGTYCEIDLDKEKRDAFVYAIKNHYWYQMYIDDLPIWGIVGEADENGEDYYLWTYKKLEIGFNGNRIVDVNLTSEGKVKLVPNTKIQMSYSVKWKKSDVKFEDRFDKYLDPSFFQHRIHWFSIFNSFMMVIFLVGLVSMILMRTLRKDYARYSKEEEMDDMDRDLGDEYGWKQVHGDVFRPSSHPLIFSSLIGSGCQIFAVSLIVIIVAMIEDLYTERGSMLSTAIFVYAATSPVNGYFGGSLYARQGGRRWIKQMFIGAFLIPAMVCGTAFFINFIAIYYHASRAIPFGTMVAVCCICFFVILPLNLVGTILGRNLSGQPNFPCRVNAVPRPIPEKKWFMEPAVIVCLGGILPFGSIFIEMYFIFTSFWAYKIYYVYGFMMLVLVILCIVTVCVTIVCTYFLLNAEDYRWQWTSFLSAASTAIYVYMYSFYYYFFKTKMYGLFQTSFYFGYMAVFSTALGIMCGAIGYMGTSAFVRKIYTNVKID
Nature of the test: Receptor binding of the compound in rat lung membranes ([125I]-iodo-cyanopindolol ligand binding assay; Experiments 1 and 4). Particulars: Table 37; compound concentration 30 μM; [125I]-iodo-cyanopindolol, rat lung membranes; Experiment 1; read-out: Binding Activity (30 μM). As to the method:
Evaluation Test on Receptor Binding of the Compound in Rat Lung Membranes:
This experiment was carried out according to the method disclosed in Sugasawa et al., (Sugasawa, T. et al., J. Biol. Chem., 272, 21244-21252(1997)).
Preparation of Rat Lung Membranes
The air tube and blood vessels were removed from the lung excised from SD male rats (7-weeks old when used, purchased from Charles River Japan, Inc.), and the lung was chopped, and washed with ice-cold tris-saline buffer (10 mM Tris-HCl, 154 mM sodium chloride, pH 7.4). The lung was homogenized by PHYSCOTRON (maximum speed: 1 minute) in a buffer for homogenization (tris-saline buffer containing 1 mM ethylenediaminetetraacetate (EDTA), 1 mM 4-(2-aminoethyl)-benzenesulfonyl fluoride (AEBSF), 5 μg/ml aprotinin, 5 μg/ml leupeptin) under ice-cooling. The mixture was centrifuged at a low speed (1500×g, 20 minutes, 4° C.), and the supernatant was super-centrifuged (100000×g, 20 minutes, 4° C.). The pellets thus obtained were suspended in tris-saline buffer, and kept at −80° C. The concentration of protein was measured by a Protein Assay Kit manufactured by Bio-Rad using bovine serum albumin (BSA) as standard.
To each well of a protein-non-adsorbent round-bottom 96-well assay plate (purchased from IWAKI GLASS CO., LTD.) was added tris-saline buffer (200 μl) containing 1 nM [^125I]-iodo-cyanopindolol (purchased from Amarsham), 10 μM serotonin, 20 μM dl-propranol, 10 μM phentoramine, 1.1 mM ascorbic acid and 100 μg lung membranes, and the mixture was mixed well by pipetting, and the plate was incubated at 37° C. for 30 minutes. Test compounds were dissolved in 100% dimethylsulfoxide, and added to the plate in an amount of 2 μl (final concentration of DMSO: 1%). In order to obtain non-specific binding, L-threo-3-(3,4-dihydroxyphenyl)-N-[3-(4-fluorophenyl)propyl]-serinepyrrolidinamide was added at a final concentration of 100 μM instead of test compound. During this period, 0.3% polyethyleneimine (PEI)/tris-saline buffer (100 μl) was added to a multiscreen plate (96-well B-glassfiber, milipore Cat. No. MAFB NOB10) and the plate was incubated for more than 30 minutes. The plate was washed by vacuum filtration (by adding ice-cold tris-saline buffer (200 μl) and then vacuum filtration), and the reaction solution on the 96-well assay plate was washed by vacuum filtration onto the multiscreen plate for four times. The B-glassfiber paper filter at the bottom of the multiscreen plate was punched out, and the γ-ray amount of [^125I]-iodo-cyanopindolol being trapped onto the paper filter was measured as binding amount. The binding amount in the presence of DMSO (final concentration: 1%) was regarded as total binding, and the binding in the presence of L-threo-3-(3,4-dihydroxyphenyl) -N-[3-(4-fluorophenyl)-propyl]serinepyrrolidinamide was regarded as non-specific binding. The value which is calculated by subtracting non-specific binding from total binding is specific binding. The binding activity of the compound can be calculated by the following equation, and expressed in a ratio of inhibiting the specific binding of [^125I]-iodo-cyanopindorol to SMBS on rat lung membranes.
In the same manner to in Experiment 1, the receptor binding assay was carried out on the present compounds by using the rat lung membranes.
For `NCCCn1c(-c2ccc(-c3ccccc3)cc2)csc1=Nc1ccccc1` [Example 11, N-[3-(3-Aminopropyl)-4-(1,1′-biphenyl-4-yl)thiazol-2(3H)-ylidene]aniline], the inhibition at 30 µM stood at 98.1%.

The same test, now with this note: Table 42; concentration tested 30 μM; rat lung membranes; Experiment 4; read-out: Binding Activity (30 μM).
Turning to `N=C(NCCCn1c(-c2ccc(N3CCOCC3)cc2)cs/c1=N\c1ccc(F)cc1)N1CCCCC1` [Example 257], the inhibition at 30 µM came out at 110%.

As to `CCS(=O)(=O)NCCCn1c(-c2ccc(N3CCOCC3)cc2)cs/c1=N\c1ccc(F)cc1` [Example 251], the inhibition at 30 µM was found to be 61%.

`CCCCNC(=O)NCCCn1c(-c2ccc(N3CCOCC3)cc2)csc1=Nc1ccc(F)cc1` [Example 221, N-butyl-N′-{3-[2-[(4-fluorophenyl)imino]-4-[4-(morpholino)phenyl]-thiazol-3(2H)-yl]propyl}urea]: the inhibition at 30 µM came out at 79%.

Regarding `CCNC(=O)NCCCn1c(-c2ccc(N3CCOCC3)cc2)cs/c1=N\c1ccc(OC)cn1` [Example 298], the inhibition at 30 µM turned out to be 101%.

With `COc1ccc(NC(=O)NCCCn2c(-c3ccc(N4CCOCC4)cc3)cs/c2=N\c2ccc(F)cc2)cc1` [Example 291], the inhibition at 30 µM worked out at 68%.

Still in this test, the particulars now being: Table 43; concentration tested 30 μM; rat lung membranes; Experiment 4; read-out: Binding Activity (30 μM).
In the case of `COCCNC(=O)NCCCn1c(-c2ccc(N3CCOCC3)cc2)cs/c1=N\c1ccc(F)cc1` [Example 355], the inhibition at 30 µM came to 89%.

Regarding `COCC(=O)NCCCn1c(-c2ccc(OC(F)(F)F)cc2)cs/c1=N\Cc1ccc(OC)cc1OC` [Example 383, N-{3-[2-[(2,4-Dimethoxybenzyl)imino]-4-[4-(trifluoromethoxy)phenyl]-1,3-thiazol-3(2H)-yl]propyl}-2-methoxyacetamide], the inhibition at 30 µM is 84%.

`O=C(CNc1ccccc1)NCCCn1c(-c2ccc(N3CCOCC3)cc2)cs/c1=N\c1ccc(F)cc1` [Example 359]: the inhibition at 30 µM is 82%.

With `CCNC(=O)NCCCn1c(-c2ccc(N3CCOCC3)cc2)cs/c1=N\c1nccs1` [Example 299], the inhibition at 30 µM worked out at 93%.

As for `CCN(CC)C(=O)CNCCCn1c(-c2ccc(N3CCOCC3)cc2)cs/c1=N\c1ccc(F)cc1` [Example 343], the inhibition at 30 µM stood at 107%.

Still in this test, the particulars now being: Table 44; concentration tested 30 μM; rat lung membranes; Experiment 4; read-out: Binding Activity (30 μM).
With `CC(=O)NCCCn1c(-c2ccc(OC(F)(F)F)cc2)cs/c1=N\C(=O)CC1CCCC1` [Example 458], the inhibition at 30 µM is 87%.

Regarding `O=C(NCCCn1c(-c2ccc(OC(F)(F)F)cc2)cs/c1=N\Cc1ccc(Cl)cc1)N1CCOCC1` [Example 405], the inhibition at 30 µM was determined as 115%.

As for `CC(=O)NCCCn1c(-c2ccc(OC(F)(F)F)cc2)cs/c1=N\C(=O)c1ccncc1` [Example 452], the inhibition at 30 µM was 84%.

Consider `O=C(NCCCn1c(-c2ccc(OC(F)(F)F)cc2)cs/c1=N\Cc1ccc(Cl)cc1)Nc1ccc(F)cc1` [Example 393], for which the inhibition at 30 µM amounted to 80%.

With `CCNC(=O)NCCCn1c(-c2ccc(OC)cc2)cs/c1=N\CCc1ccncc1` [Example 398], the inhibition at 30 µM was determined as 37%.

Consider `CCCCCC(=O)NCCCn1c(-c2ccc(OC(F)(F)F)cc2)cs/c1=N\C(=O)c1ccc(OC)cc1OC` [Example 448], for which the inhibition at 30 µM worked out at 77%.

Consider `COc1ccc(C(=O)N=c2scc(CNS(=O)(=O)c3ccc(C)cc3)n2CCCNC(C)=O)c(OC)c1` [Example 473, N-[3-[3-(Acetylamino)propyl]-4-({[(4-methylphenyl)sulfonyl]amino}-methyl)thiazol-2(3H)-ylidene]-2,4-dimethoxybenzamide], for which the inhibition at 30 µM was 33%.

Regarding `COc1ccc(C(=O)/N=c2\scc(C(=O)N3CCc4ccccc4C3)n2CCCN)c(OC)c1` [Example 432], the inhibition at 30 µM is 42%.

The test is the same for the next values; noted with them: ratio of inhibiting the specific binding of [125I]-iodo-cyanopindolol; test concentration 30 μM; rat lung membranes; read-out: Binding Activity (30 μM).
With `CCNC(=O)NCCCn1c(-c2ccc(F)cc2)cs/c1=N\C(=O)c1ccc(Cl)cc1OC` [Example 496], the inhibition at 30 µM was determined as 80%.

Turning to `CCS(=O)(=O)NCCCn1c(-c2ccc(OC(F)(F)F)cc2)cs/c1=N\C(=O)c1ccc(OC)cc1OC` [Example 536], the inhibition at 30 µM amounted to 67%.

Take `COc1ccc(C(=O)/N=c2\scc(-c3ccc(OC(F)(F)F)cc3)n2CCCNCC(=O)NCC(=O)O)c(OC)c1` [Example 523]: the inhibition at 30 µM turned out to be 73%.
